Results: patent US10870638B2, “Pyridazinone compound or its salt, and herbicide containing it” (ISHIHARA SANGYO KAISHA, LTD., priority 2016, dated 2020)

Experiments:
Type in all cases: in vivo
Settings in all cases: active ingredient amount 31 g/ha, 14th day after application
[1] = tested on: soybean (Glycine max Merr.); assay: Test Example 2: soil application on the day after sowing, growth inhibition rate on 14th day
Excerpt: (§1) Upland field soil was put into a 1/300,000 hectare pot, and seeds of various plants (barnyardgrass (Echinochloa crus-qalli L.), crabgrass (Digitaris sanquinalis L.), green foxtail (Setaria viridis L.), redroot pigweed (Amaranthus retroflexus L.), prickly sida (Sida spinosa L.), velvetleaf (Abutilon theophrasti MEDIC.), rice (Oryza sativa L.), corn (Zea mays L.), wheat (Triticum aestivum L.), soybean (Glycine max Merr.)) were sown. On the day after sowing, wettable powders or emulsifiable concentrates of the compounds of the present invention prepared in accordance with a conventional preparation method, were weighed so as to achieve the prescribed active ingredient amounts, and diluted with water in an amount corresponding to 1,000 liters per 1 hectare, followed by soil application by a small sprayer.
(§2) On the 14th day after the application, the state of growth of the respective plants was visually observed, and the herbicidal effect was evaluated by a growth inhibition rate (%) of 0 (equivalent to the non-treated area) to 100 (complete kill).

[2] = tested on: crabgrass (Digitaris sanquinalis L.); assay: as above
Excerpt: as §1, §2

corn (Zea mays L.) [3] = assay: as above
Excerpt: as §1, §2

[4] = tested on: prickly sida (Sida spinosa L.); assay: as above
Excerpt: as §1, §2

[5] = tested on: redroot pigweed (Amaranthus retroflexus L.); assay: as above
Excerpt: as §1, §2

[6] = tested on: velvetleaf (Abutilon theophrasti MEDIC.); assay: as above
Excerpt: as §1, §2

rice (Oryza sativa L.) [7] = assay: as above
Excerpt: as §1, §2

[8] = tested on: green foxtail (Setaria viridis L.); assay: as above
Excerpt: as §1, §2

[9] = tested on: wheat (Triticum aestivum L.); assay: as above
Excerpt: as §1, §2

[10] = tested on: barnyardgrass (Echinochloa crus-qalli L.); assay: as above
Excerpt: as §1, §2

[11] = tested on: soybean (Glycine max Merr.); assay: Test Example 1: foliar treatment, growth inhibition rate on 14th day
Method in brief: (§3)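 Compounds applied once to leaves of pot-grown plants; wild oat at 0.4–1.2 leaf, foxtail 0.5–3.2, rice 0.2–2.7, soybean primary leaf. Inhibition estimated by eye on day 14.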

[12] = tested on: crabgrass (Digitaria sanquinalis L.); assay: as above
Method in brief: (§4)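 Using a small sprayer, formulated compound in water (0.1 vol % surfactant, 1,000 L/ha) was applied to seedlings grown from seed in upland soil. Fourteen days on, growth state was observed and expressed as percent inhibition from 0 to 100.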

corn (Zea mays L.) [13] = assay: as above
Method in brief: as §4

[14] = tested on: redroot pigweed (Amaranthus retroflexus L.); assay: as above
Method in brief: as §4

rice (Oryza sativa L.) [15] = assay: as above
Method in brief: as §3

[16] = tested on: wild oat (Avena fatua L.); assay: as above
Method in brief: as §3

[17] = tested on: italian ryegrass (Lolium multiflorum Lam.); assay: as above
Method in brief: as §4

[18] = tested on: green foxtail (Setaria viridis L.); assay: as above
Method in brief: as §3

[19] = tested on: wheat (Triticum aestivum L.); assay: as above
Method in brief: as §4

[20] = tested on: barnyardgrass (Echinochloa crus-qalli L.); assay: as above
Method in brief: as §4

## CCc1ccc(Sc2ncc(C(F)(F)F)cc2Cl)cc1-c1c(OC(C)=O)c(C)nn(C)c1=O [1-46]
[1]
  Growth inhibition rate (%) Soybean: 0%
[2]
  Growth inhibition rate (%) Crabgrass: 90%
Corn (Zea mays L.) [3]
  Growth inhibition rate (%) Corn: 0%
[4]
  Growth inhibition rate (%) Prickly sida: 0%
[5]
  Growth inhibition rate (%) Redroot pigweed: 0%
[6]
  Growth inhibition rate (%) Velvetleaf: 0%
Rice (Oryza sativa L.) [7]
  Growth inhibition rate (%) Rice: 30%
[8]
  Growth inhibition rate (%) Green foxtail: 99%
[9]
  Growth inhibition rate (%) Wheat: 30%
[10]
  Growth inhibition rate (%) Barnyardgrass: 80%
[11]
  Growth inhibition rate (%) Soybean: 0%
[12]
  Growth inhibition rate (%) Crabgrass: 100%
Corn (Zea mays L.) [13]
  Growth inhibition rate (%) Corn: 98%
[14]
  Growth inhibition rate (%) Redroot pigweed: 30%
Rice (Oryza sativa L.) [15]
  Growth inhibition rate (%) Rice: 80%
[16]
  Growth inhibition rate (%) Wild oat: 100%
[17]
  Growth inhibition rate (%) Italian ryegrass: 99%
[18]
  Growth inhibition rate (%) Green foxtail: 100%
[19]
  Growth inhibition rate (%) Wheat: 98%
[20]
  Growth inhibition rate (%) Barnyardgrass: 100%

## Cc1ccc(Oc2ncc(C(F)(F)F)cc2Cl)cc1-c1c(OC(=O)OC(C)(C)C)c(C)nn(C)c1=O [1-59]
[1]
  Growth inhibition rate (%) Soybean: 0%
[2]
  Growth inhibition rate (%) Crabgrass: 100%
Corn (Zea mays L.) [3]
  Growth inhibition rate (%) Corn: 0%
[4]
  Growth inhibition rate (%) Prickly sida: 0%
[5]
  Growth inhibition rate (%) Redroot pigweed: 0%
[6]
  Growth inhibition rate (%) Velvetleaf: 0%
Rice (Oryza sativa L.) [7]
  Growth inhibition rate (%) Rice: 20%
[8]
  Growth inhibition rate (%) Green foxtail: 99%
[9]
  Growth inhibition rate (%) Wheat: 0%
[10]
  Growth inhibition rate (%) Barnyardgrass: 100%
[11]
  Growth inhibition rate (%) Soybean: 0%
[12]
  Growth inhibition rate (%) Crabgrass: 100%
Corn (Zea mays L.) [13]
  Growth inhibition rate (%) Corn: 98%
[14]
  Growth inhibition rate (%) Redroot pigweed: 0%
Rice (Oryza sativa L.) [15]
  Growth inhibition rate (%) Rice: 40%
[16]
  Growth inhibition rate (%) Wild oat: 99%
[17]
  Growth inhibition rate (%) Italian ryegrass: 98%
[18]
  Growth inhibition rate (%) Green foxtail: 100%
[19]
  Growth inhibition rate (%) Wheat: 93%
[20]
  Growth inhibition rate (%) Barnyardgrass: 100%

## Cc1ccc(Oc2ncc(C(F)(F)F)cc2Cl)cc1-c1c(OS(C)(=O)=O)c(C)nn(C)c1=O [1-62]
[1]
  Growth inhibition rate (%) Soybean: 0%
[2]
  Growth inhibition rate (%) Crabgrass: 100%
Corn (Zea mays L.) [3]
  Growth inhibition rate (%) Corn: 0%
[4]
  Growth inhibition rate (%) Prickly sida: 0%
[5]
  Growth inhibition rate (%) Redroot pigweed: 0%
[6]
  Growth inhibition rate (%) Velvetleaf: 0%
Rice (Oryza sativa L.) [7]
  Growth inhibition rate (%) Rice: 20%
[8]
  Growth inhibition rate (%) Green foxtail: 99%
[9]
  Growth inhibition rate (%) Wheat: 0%
[10]
  Growth inhibition rate (%) Barnyardgrass: 100%
[11]
  Growth inhibition rate (%) Soybean: 0%
[12]
  Growth inhibition rate (%) Crabgrass: 100%
Corn (Zea mays L.) [13]
  Growth inhibition rate (%) Corn: 100%
[14]
  Growth inhibition rate (%) Redroot pigweed: 0%
Rice (Oryza sativa L.) [15]
  Growth inhibition rate (%) Rice: 88%
[16]
  Growth inhibition rate (%) Wild oat: 99%
[17]
  Growth inhibition rate (%) Italian ryegrass: 98%
[18]
  Growth inhibition rate (%) Green foxtail: 100%
[19]
  Growth inhibition rate (%) Wheat: 90%
[20]
  Growth inhibition rate (%) Barnyardgrass: 100%

## CCn1nc(C)c(O)c(-c2cc(Oc3ncc(C(F)(F)F)cc3Cl)ccc2C)c1=O [1-65]
[1]
  Growth inhibition rate (%) Soybean: 0%
[2]
  Growth inhibition rate (%) Crabgrass: 100%
Corn (Zea mays L.) [3]
  Growth inhibition rate (%) Corn: 0%
[4]
  Growth inhibition rate (%) Prickly sida: 0%
[5]
  Growth inhibition rate (%) Redroot pigweed: 0%
[6]
  Growth inhibition rate (%) Velvetleaf: 0%
Rice (Oryza sativa L.) [7]
  Growth inhibition rate (%) Rice: 20%
[8]
  Growth inhibition rate (%) Green foxtail: 99%
[9]
  Growth inhibition rate (%) Wheat: 0%
[10]
  Growth inhibition rate (%) Barnyardgrass: 100%
[11]
  Growth inhibition rate (%) Soybean: 0%
[12]
  Growth inhibition rate (%) Crabgrass: 100%
Corn (Zea mays L.) [13]
  Growth inhibition rate (%) Corn: 98%
[14]
  Growth inhibition rate (%) Redroot pigweed: 0%
Rice (Oryza sativa L.) [15]
  Growth inhibition rate (%) Rice: 60%
[16]
  Growth inhibition rate (%) Wild oat: 98%
[17]
  Growth inhibition rate (%) Italian ryegrass: 98%
[18]
  Growth inhibition rate (%) Green foxtail: 100%
[19]
  Growth inhibition rate (%) Wheat: 10%
[20]
  Growth inhibition rate (%) Barnyardgrass: 99%

## CCc1ccc(Oc2ncc(C(F)(F)F)cc2Cl)cc1-c1c(O)cnn(C)c1=O [1-95]
[1]
  Growth inhibition rate (%) Soybean: 0%
[2]
  Growth inhibition rate (%) Crabgrass: 100%
Corn (Zea mays L.) [3]
  Growth inhibition rate (%) Corn: 80%
[4]
  Growth inhibition rate (%) Prickly sida: 0%
[5]
  Growth inhibition rate (%) Redroot pigweed: 0%
[6]
  Growth inhibition rate (%) Velvetleaf: 0%
Rice (Oryza sativa L.) [7]
  Growth inhibition rate (%) Rice: 50%
[8]
  Growth inhibition rate (%) Green foxtail: 100%
[9]
  Growth inhibition rate (%) Wheat: 0%
[10]
  Growth inhibition rate (%) Barnyardgrass: 100%
[11]
  Growth inhibition rate (%) Soybean: 0%
[12]
  Growth inhibition rate (%) Crabgrass: 100%
Corn (Zea mays L.) [13]
  Growth inhibition rate (%) Corn: 100%
[14]
  Growth inhibition rate (%) Redroot pigweed: 0%
Rice (Oryza sativa L.) [15]
  Growth inhibition rate (%) Rice: 80%
[16]
  Growth inhibition rate (%) Wild oat: 99%
[17]
  Growth inhibition rate (%) Italian ryegrass: 95%
[18]
  Growth inhibition rate (%) Green foxtail: 100%
[19]
  Growth inhibition rate (%) Wheat: 45%
[20]
  Growth inhibition rate (%) Barnyardgrass: 100%

## CCc1nn(C)c(=O)c(-c2cc(Oc3ncc(C(F)(F)F)cc3Cl)ccc2C)c1O [1-98]
[1]
  Growth inhibition rate (%) Soybean: 0%
[2]
  Growth inhibition rate (%) Crabgrass: 20%
Corn (Zea mays L.) [3]
  Growth inhibition rate (%) Corn: 0%
[4]
  Growth inhibition rate (%) Prickly sida: 0%
[5]
  Growth inhibition rate (%) Redroot pigweed: 0%
[6]
  Growth inhibition rate (%) Velvetleaf: 0%
Rice (Oryza sativa L.) [7]
  Growth inhibition rate (%) Rice: 35%
[8]
  Growth inhibition rate (%) Green foxtail: 30%
[9]
  Growth inhibition rate (%) Wheat: 0%
[10]
  Growth inhibition rate (%) Barnyardgrass: 95%
[11]
  Growth inhibition rate (%) Soybean: 10%
[12]
  Growth inhibition rate (%) Crabgrass: 30%
Corn (Zea mays L.) [13]
  Growth inhibition rate (%) Corn: 80%
[14]
  Growth inhibition rate (%) Redroot pigweed: 0%
Rice (Oryza sativa L.) [15]
  Growth inhibition rate (%) Rice: 0%
[16]
  Growth inhibition rate (%) Wild oat: 65%
[17]
  Growth inhibition rate (%) Italian ryegrass: 78%
[18]
  Growth inhibition rate (%) Green foxtail: 60%
[19]
  Growth inhibition rate (%) Wheat: 20%
[20]
  Growth inhibition rate (%) Barnyardgrass: 88%

## COCOc1c(C)nn(C)c(=O)c1-c1cc(Oc2ncc(C(F)(F)F)cc2Cl)ccc1C [1-132]
[1]
  Growth inhibition rate (%) Soybean: 0%
[2]
  Growth inhibition rate (%) Crabgrass: 93%
Corn (Zea mays L.) [3]
  Growth inhibition rate (%) Corn: 10%
[4]
  Growth inhibition rate (%) Prickly sida: 0%
[5]
  Growth inhibition rate (%) Redroot pigweed: 0%
[6]
  Growth inhibition rate (%) Velvetleaf: 0%
Rice (Oryza sativa L.) [7]
  Growth inhibition rate (%) Rice: 0%
[8]
  Growth inhibition rate (%) Green foxtail: 98%
[9]
  Growth inhibition rate (%) Wheat: 0%
[10]
  Growth inhibition rate (%) Barnyardgrass: 99%
[11]
  Growth inhibition rate (%) Soybean: 20%
[12]
  Growth inhibition rate (%) Crabgrass: 100%
Corn (Zea mays L.) [13]
  Growth inhibition rate (%) Corn: 99%
[14]
  Growth inhibition rate (%) Redroot pigweed: 0%
Rice (Oryza sativa L.) [15]
  Growth inhibition rate (%) Rice: 88%
[16]
  Growth inhibition rate (%) Wild oat: 98%
[17]
  Growth inhibition rate (%) Italian ryegrass: 98%
[18]
  Growth inhibition rate (%) Green foxtail: 100%
[19]
  Growth inhibition rate (%) Wheat: 98%
[20]
  Growth inhibition rate (%) Barnyardgrass: 100%

## Cc1nn(C)c(=O)c(-c2cc(Oc3ncc(C(F)(F)F)cc3Cl)ccc2C2CC2)c1O [1-149]
[1]
  Growth inhibition rate (%) Soybean: 0%
[2]
  Growth inhibition rate (%) Crabgrass: 99%
Corn (Zea mays L.) [3]
  Growth inhibition rate (%) Corn: 0%
[4]
  Growth inhibition rate (%) Prickly sida: 0%
[5]
  Growth inhibition rate (%) Redroot pigweed: 0%
[6]
  Growth inhibition rate (%) Velvetleaf: 0%
Rice (Oryza sativa L.) [7]
  Growth inhibition rate (%) Rice: 0%
[8]
  Growth inhibition rate (%) Green foxtail: 100%
[9]
  Growth inhibition rate (%) Wheat: 0%
[10]
  Growth inhibition rate (%) Barnyardgrass: 98%
[11]
  Growth inhibition rate (%) Soybean: 0%
[12]
  Growth inhibition rate (%) Crabgrass: 98%
Corn (Zea mays L.) [13]
  Growth inhibition rate (%) Corn: 50%
[14]
  Growth inhibition rate (%) Redroot pigweed: 10%
Rice (Oryza sativa L.) [15]
  Growth inhibition rate (%) Rice: 70%
[16]
  Growth inhibition rate (%) Wild oat: 85%
[17]
  Growth inhibition rate (%) Italian ryegrass: 83%
[18]
  Growth inhibition rate (%) Green foxtail: 100%
[19]
  Growth inhibition rate (%) Wheat: 20%
[20]
  Growth inhibition rate (%) Barnyardgrass: 100%
